Consider 2 compounds from patent US9388123B2, “LSD1-selective inhibitor having lysine structure” (KYOTO UNIVERSITY, priority 2012, dated 2016).

The target of series [1] is T1, monoamine oxidase A (MAO-A) (Homo sapiens, UniProt P21397).
T1 construct: purchased Sigma-Aldrich
T1 sequence (P21397 1-527): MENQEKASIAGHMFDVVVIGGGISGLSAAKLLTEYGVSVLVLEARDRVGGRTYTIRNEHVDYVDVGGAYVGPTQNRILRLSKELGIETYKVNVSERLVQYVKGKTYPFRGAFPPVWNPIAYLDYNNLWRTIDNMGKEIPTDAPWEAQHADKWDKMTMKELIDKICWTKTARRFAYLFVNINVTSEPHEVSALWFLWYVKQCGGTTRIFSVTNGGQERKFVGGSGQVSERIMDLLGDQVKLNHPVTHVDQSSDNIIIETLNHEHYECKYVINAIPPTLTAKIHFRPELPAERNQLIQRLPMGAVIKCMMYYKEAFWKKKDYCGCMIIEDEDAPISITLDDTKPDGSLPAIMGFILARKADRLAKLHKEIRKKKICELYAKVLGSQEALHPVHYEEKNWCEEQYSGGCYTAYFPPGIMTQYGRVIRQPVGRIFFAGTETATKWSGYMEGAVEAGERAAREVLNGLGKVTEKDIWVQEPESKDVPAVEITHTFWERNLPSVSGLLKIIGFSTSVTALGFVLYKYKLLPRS
Nature of the series: Monoamine oxidase inhibition test (MAO-Glo assay kit). The format is biochemical. Particulars: room temperature, 1 hour.
Experimental: (§6) To the reaction liquid was added 50 μL of a luciferin detection reagent, and the mixture was subjected to a reaction at room temperature for 20 minutes.

The next series concerns U937. Nature of the series: Leukemia cell growth inhibition evaluation (WST-8). The format is cell-based. Particulars: Homo sapiens, U-937; day 3 (72-hour culture); read-out: Human leukemia cell line GI50 (μM) U937. An excerpt: (§1) HL60, THP-1, K562, U937, KGla, HEL, and MDS-L were used as human leukemia cells. The cell lines are cell lines established from various subtypes such as acute myeloid leukemia, acute promyelocytic leukemia, acute monocytic leukemia, acute erythroid leukemia, and myelodysplastic syndromes, which progress to leukemia. Cells obtained by introducing leukemia fusion genes MLL/AF9, MLL/SEPT6, and MLL/ENL into the bone marrow of normal mice with a retrovirus so as to develop leukemia were used as murine leukemia cell lines.
(§2) This assay method involves, as a principle thereof, measuring an absorbance (a peak at from 450 nm to 490 nm) at the time of color development through a reaction of NADH, which is contained in the mitochondria of viable cells, and WST-8 to measure the amount of NADH. Specifically, the assay was performed by the following procedure.
(§3) The cells were plated at 50 μl, i.e., 5,000 cells per well in a 96-well microtiter plate. Next, a test compound dissolved in DMSO was mixed at various concentrations into the same medium, and 50 μl of each of the mixtures was added to each well. A medium was prepared so that the final concentration of the test compound was from 0 μM to 50 μM and so that the addition amount of DMSO was the same, and the cells were cultured in a CO2 incubator. On day 0 before the addition and on day 1, day 2, and day 3 after the addition, WST-8 reagent was added at 20 μl per well, and the cells were cultured for 1 hour in a CO2 incubator. After that, measurement was performed with ARVO X3 (manufactured by PerkinElmer).
(§4) Specifically, an absorbance at 450 nm was measured, an absorbance at 595 nm was measured in the same well, and the absorbance at 595 nm was subtracted from the absorbance at 450 nm to perform background correction for the well itself. Further, a well containing only a medium free of cells was subjected to the same measurement. A value in this case was also subtracted. Thus, the amount of viable cells was represented as a numerical value with correction of the influence of a medicament or a medium as well. Under a condition not containing the test compound (addition of only dimethyl sulfoxide), an exponential increase in number of viable cells on day 1, day 2, and day 3 in the stated order was confirmed.
(In general: Formazan colour is commonly taken as a measure of viable cells.)

Series [2] has as its system MLL/ENL leukemia cell line. In words: Leukemia cell growth inhibition evaluation (WST-8). The format is cell-based. Particulars: Mus musculus; day 3 (72-hour culture); read-out: Mouse MLL-fusion leukemia cell line GI50 (μM) MLL/ENL.
Text: as §1, §2, §3, §4

A further series has as its system THP1. In words: Leukemia cell growth inhibition evaluation (WST-8). The series is classed as cell-based. Particulars: Homo sapiens, THP-1; day 3 (72-hour culture); read-out: Human leukemia cell line GI50 (μM) THP1.
Text: as §1, §2, §3, §4

The test system of series [3] is MLL/AF9 leukemia cell line. In words: Leukemia cell growth inhibition evaluation (WST-8). The series is classed as cell-based. Particulars: Mus musculus, day 3 (72-hour culture), read-out: Mouse MLL-fusion leukemia cell line GI50 (μM) MLL/AF9.
Text: as §1, §2, §3, §4

For another series, the system named is HL60. In words: Leukemia cell growth inhibition evaluation (WST-8). The series is classed as cell-based. Particulars: Homo sapiens, HL-60; day 3 (72-hour culture); read-out: Human leukemia cell line GI50 (μM) HL60.
Text: as §1, §2, §3, §4

The test system of another series is K562. In words: Leukemia cell growth inhibition evaluation (WST-8). The series is classed as cell-based. Particulars: Homo sapiens, day 3 (72-hour culture), read-out: Human leukemia cell line GI50 (μM) K562.
Text: as §1, §2, §3, §4

In a further series the test system is M7. Nature of the series: Leukemia cell growth inhibition evaluation (WST-8). Particulars: Homo sapiens; day 3 (72-hour culture); read-out: Human leukemia cell line GI50 (μM) M7. The format is cell-based.
Text: as §1, §2, §3, §4

The test system of another series is KG1a. Nature of the series: Leukemia cell growth inhibition evaluation (WST-8). The series is classed as cell-based. Particulars: Homo sapiens, KG-1a; day 3 (72-hour culture); read-out: Human leukemia cell line GI50 (μM) KG1a.
Text: as §1, §2, §3, §4

The target of series [4] is T2, monoamine oxidase B (MAO-B) (Homo sapiens, UniProt P27338).
T2 construct: purchased Sigma-Aldrich
T2 sequence (P27338 1-520): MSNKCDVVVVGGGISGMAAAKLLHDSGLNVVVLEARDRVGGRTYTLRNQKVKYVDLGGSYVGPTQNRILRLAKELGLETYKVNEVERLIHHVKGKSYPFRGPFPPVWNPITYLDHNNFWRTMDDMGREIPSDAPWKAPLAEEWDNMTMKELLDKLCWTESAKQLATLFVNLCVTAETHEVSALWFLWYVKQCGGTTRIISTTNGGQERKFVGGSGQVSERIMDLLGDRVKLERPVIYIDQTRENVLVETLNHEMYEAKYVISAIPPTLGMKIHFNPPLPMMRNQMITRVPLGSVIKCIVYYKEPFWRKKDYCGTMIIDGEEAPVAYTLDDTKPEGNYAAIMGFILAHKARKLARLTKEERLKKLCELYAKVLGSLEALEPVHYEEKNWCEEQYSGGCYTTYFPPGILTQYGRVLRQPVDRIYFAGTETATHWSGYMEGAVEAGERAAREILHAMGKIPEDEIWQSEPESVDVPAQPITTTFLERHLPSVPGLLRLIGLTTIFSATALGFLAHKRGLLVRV
Nature of the series: Monoamine oxidase inhibition test (MAO-Glo assay kit). The format is biochemical. Particulars: room temperature, 1 hour.
Experimental: as §6

Series [5] concerns murine leukemia cell lines. In words: Leukemia cell growth inhibition evaluation, summary in words. The series is classed as cell-based. Particulars: Table 6.
Text: as §1, §2, §3, §4

Series [6] has as its system human leukemia cell lines. The series is described as above. The format is cell-based. Particulars: Table 5.
Text: as §1, §2, §3, §4

The test system of another series is HeLa cells. In words: Cancer cell growth inhibition evaluation (MTT assay). The format is cell-based. Particulars: Homo sapiens, 48 h, read-out: GI50 (μM) HeLa. The procedure:
(§5) Evaluation was performed by measuring the inhibitory activities of a compound against the growth of a human cervical cancer-derived cell line, HeLa cells, and a human neuroblastoma cell line, SH-SY5Y cells. Details thereof are shown below. […] This assay involves, as a principle thereof, measuring an absorbance at the time of color development through a reaction of NADH, which is contained in the mitochondria of viable cells, and MTT to measure the amount of NADH. The assay was performed by the following procedure. […] After the culture, a compound was added. Then, the cells were cultured for an additional 48 hours, and then 5 mg/ml MTT liquid was added at 10 μl per well. The cells were cultured for an additional 3 hours in a CO2 incubator. A solubilization solution (0.04 mol/l hydrochloric acid-isopropanol) was added at 100 μl per well and the mixture was vigorously vortexed. After that, an absorbance at 560 nm was measured with Fusion-aFP (manufactured by PerkinElmer) and the amount of viable cells was determined.

A further series has as its system SH-SY5Y cells. The description is as above. Particulars: Homo sapiens, read-out: GI50 (μM) SH-SY5Y. The series is classed as cell-based. The procedure: as §5
In the next series the test system is MDS-L. In words: Leukemia cell growth inhibition evaluation (WST-8). The format is cell-based. Particulars: Homo sapiens; day 3 (72-hour culture); read-out: Human leukemia cell line GI50 (μM) MDS-L.
Text: as §1, §2, §3, §4

Another series concerns HEL. In words: Leukemia cell growth inhibition evaluation (WST-8). The format is cell-based. Particulars: Homo sapiens, day 3 (72-hour culture), read-out: Human leukemia cell line GI50 (μM) HEL.
Text: as §1, §2, §3, §4

Series [7] has as its system bone marrow cells of normal mice. Nature of the series: Normal cell growth inhibition evaluation (colony forming ability in methylcellulose semi-solid medium). The series is classed as cell-based. Particulars: at 10 μM; 10 days culture; FIG. 1. An excerpt:
In general, a semi-solid medium obtained by adding a cytokine involved in differentiation induction to a methylcellulose medium is used to evaluate a colony forming ability. Some of the bone marrow cells contain hematopoietic stem cells and precursor cells, which are sources of hematopoietic cells, and these cells can create a mass (called a colony) formed of several tens, several hundreds, and in some cases, several thousands of cells from a single cell on a semi-solid medium. The colony forming ability of the bone marrow cells may be evaluated by counting the number of the colonies. The colony forming ability in the semi-solid medium well reflects an actual supply ability and construction ability from the hematopoietic stem cells and precursor cells to the hematopoietic cells in vivo.
To 3 ml of MethoCult M3434 (methylcellulose-based semi-solid medium; StemCell Technologies; containing interleukin 3(IL-3), interleukin 6 (IL-6), erythropoietin (EPO), and stem cell factor (SCF)) were added 600,000 bone marrow cells of normal mice (suspended in 300 μl of IMDM medium), and the mixture was stirred well and plated at 1.1 ml per 3.5-cm culture dish. The cells were cultured under the conditions of 5% CO2 and 37° C. for 10 days in an incubator. A mass in which the number of cells was 50 or more was defined as a colony, and the number of colonies formed on each dish was counted.

Where a name gives a salt, the structure may show the parent alone. Some results are limits rather than exact numbers.

What is called IC50 is the midpoint of a concentration-inhibition curve. The low end stands for greater potency in that assay, the high end for weaker potency in that assay. As for `NC1CC1c1cccc(OCC[C@H](NC(=O)c2ccccc2)C(=O)NCc2ccccc2)c1` (stereo partly drawn) [Comp. Ex. 2, (S)-trans-N-3-[3-(2-aminocyclopropyl)phenoxy]-1-benzylcarbamoylpropylbenzamide hydrochloride, reference compound], the 50% inhibitory concentration (IC50) is 129 µM in series [1] and 326 µM in [4]. The GI50 was 25 to 50 µM with U937; under 3.1 µM in [2]; over 50 µM with THP1; under 3.1 µM in series [3]; 6.1 to 33 µM with HL60; 25 to 50 µM with K562. For the same compound, the GI50 with M7 is over 50 µM; in the series with KG1a, over 50 µM; in the series with HeLa cells, 13 µM; in the series with SH-SY5Y cells, 27 µM. Besides, the “growth inhibitory / suppressing effect on the murine leukemia cell lines (in words)” value in series [5] is “high growth inhibitory effects”. Further, the “growth inhibitory / suppressing effect on the human leukemia cell lines (in words)” value in series [6] is reported as “a variation in growth inhibitory effect on the human leukemia cell lines depending on the cell lines”.
As to `O=C(N[C@@H](CCCCNC1CC1c1ccccc1)C(=O)NCc1cccc(Cl)c1)c1ccc(-c2ccccc2)cc1` (stereo partly drawn) [Example 21, 2-[N-(4-Phenylbenzenecarbonyl)]amino-6-(trans-2-phenylcyclopropan-1-amino)-N-(3-chlorobenzyl)hexanamide Hydrochloride], the IC50 in [1] and in [4] was over 100 µM throughout. The GI50 in the series with U937 is 10 to 20 µM; in the series on MDS-L, under 1.3 µM; in the series on THP1, 10 to 20 µM; in the series on HL60, 5 to 10 µM; with KG1a, 10 to 20 µM; in the series on HEL it was under 1.3 µM. For the same compound, the GI50 in the series with HeLa cells amounted to 4.3 µM; with SH-SY5Y cells it was 2.7 µM. Besides, the “growth inhibitory / suppressing effect on the murine leukemia cell lines (in words)” value in series [5] is on record as “very high growth suppressing effects”. Further, the “growth inhibitory / suppressing effect on the human leukemia cell lines (in words)” value in series [6] is given as “higher growth suppressing effects on the human leukemia cell lines than Comparative Example 2”. Besides, the colony forming ability entry in series [7] was “not inhibited”.
